In patent EP4745139A1, “COMPOUND FOR TREATING AND PREVENTING RESPIRATORY SYNCYTIAL VIRUS INFECTION DISEASES” (CSPC Zhongqi Pharmaceutical Technology (Shijiazhuang) Co., …, priority 2023, dated 2025):

Assays:
[1] = Pharmacokinetic experiment in mice after intragastric administration (plasma and lung tissue, LC/MS/MS); assay type: in vivo; conditions: ICR, mouse, intragastric administration at 20 mg/kg; for concentration at 6 h: lung, oral, read-out: Lung tissue drug concentration at 6 h; for half-life: plasma, po
Protocol: The compounds of the present invention for intragastric administration were dissolved in a suitable solvent to form a clear solution or suspension.
Administration mode and dosage: The compounds of the present invention were administered intragastrically at 10 mg/kg or 20 mg/kg.
Number of animals: 3 ICR mice per group for intragastric administration.
Sample collection: For the intragastric administration group, 100 µL of blood was collected (using pre-heparinized 100 µL Capillary Blood Collection Tubes) from the orbital vein of mice at 0.25 h, 0.5 h, 1 h, 2 h, 4 h, and 6 h after administration and placed in heparin sodium anticoagulant tubes. Mice plasma samples were obtained by centrifugation at 3000 g for 10 minutes within 2 hours. For the intragastric administration group, clean blood was collected at 6-hour time point and then lung tissues were collected.
Sample treatment: Plasma and lung tissue homogenates were subjected to protein precipitation with methanol at a certain ratio, and the supernatant was taken and diluted with 50% methanol-water at a certain ratio for sample loading.
Sample detection: The drug concentration in plasma was detected by the LC/MS/MS method, and the drug-time curve was plotted. Pharmacokinetic parameters (such as T1/2(h)/AUC0-t) were calculated by non-compartmental model statistical moments to describe the pharmacokinetic behavior of the compounds in mice after administration.
Data processing: Pharmacokinetic parameters were calculated by WinNonlin.

[2] = system: RSV; assay: In vivo pharmacodynamic assay: mouse RSV infection model, lung viral load by plaque assay; set-up: species or system BALB/c mice; conditions: lung tissue, Day 5
Protocol: The compound of the present invention was dissolved in a suitable solvent to form a clear solution or suspension for intragastric administration. • Animals: BALB/c mice, 6-weeks old, female. • Establishment of in vivo RSV infection model: Mice were inoculated intranasally with the virus on Day 0, with an inoculation dose of 3.5 × 10^6 p.f.u. per mouse. • Grouping of animals: Animals were divided into a vehicle control group and an administration group, with 5 animals in each group.
Administration mode and dosage: The compound of the present invention was administered intragastrically at 100 mg/kg or 50 mg/kg, or the vehicle used for the compound of the present invention was administered intragastrically. The administration volume was 10 mL/kg.
Experimental procedure: Mice were inoculated intranasally with the virus on Day 0 at an inoculation dose of 3.5 × 10^6 p.f.u. per mouse. Mice were continuously treated with the compound of the present invention from Day 0 to Day 4 for 5 days at a dose of 50 mg/kg, once daily, via intragastric administration, with an administration volume of 10 mL/kg; the first administration was conducted 1 hour before virus inoculation. Alternatively, mice were treated once with the compound of the present invention on Day 0 at a dose of 100 mg/kg, via intragastric administration, with an administration volume of 10 mL/kg; the first administration was conducted 1 hour before virus inoculation. On Day 5, mice were euthanized, and lung tissue samples were collected. Animals were observed daily from Day 0 to Day 5, and the body weight, health status, and survival status were recorded.
Sample processing: After lungs were collected, they were quickly frozen in the HBSS* solution at a 10-fold weight-to-volume ratio (w:v (g:mL) = 1:10), and stored in a -80°C refrigerator for plaque assay to detect viral load.
Sample detection: Viral load in lung tissues was detected by plaque assay. […]

[3] = system: RSV strain A2; assay: Antiviral detection test against RSV strain A2 based on ELISA method (Hep-2 cells); assay type: cell-based, Respiratory Syncytial Virus; conditions: for IC50: RSV A2 virus strain, Hep-2 cells, ELISA OD450; for AK0529 IC50 / IC50 of the compounds of the present invention: ratio of IC50 values against RSV A2 virus strain, control compound AK0529
Protocol: Test Example 1: Antiviral detection test of small molecules against RSV strain A2 based on ELISA method
• Source of cell line: Nanjing Kebai Biotechnology Co., Ltd. • Cell type: human laryngeal carcinoma epithelial cells Hep-2
• 96-well culture plate (Cat.No. 3610, Corning Costar); • Fetal bovine serum (Cat.No. 10099-141, GIBCO); • DMEM medium (Cat.No. 11995500BT, GIBCO); • Envision 2104 microplate reader.
• 1. Day 1: The Hep-2 cells were seeded into a 96-well plate at a density of 1×10^4 cells/well; • 2. Day 2: • A. Compound dilution: The compound in the first well was diluted to 9 µM, and 3-fold gradient dilution was performed, with a total of 10 gradients; • B. The Hep-2 cell plate prepared on Day 1 was taken out from the incubator, the supernatant was discarded, and 100 PFU/well/50 µL of the RSV A2 virus was added to each well. The plate was stood at 37°C in a 5% CO2 incubator for 2 hours, the supernatant was aspirated and discarded, and then 100 µL of the gradient-diluted compound or DMEM maintenance medium containing 2% FBS was added to each well; • 3. Day 5: • A. Add fixative: The gradient-diluted compound or medium was discarded from the wells, and 100 µL/well of fixative (4% paraformaldehyde) was added. The plate was stood at room temperature for 10 minutes, and then was washed once with 250 µL PBS; • B. 100 µL/well of a blocking solution was added, and the plate was incubated at 37°C in a 5% CO2 incubator for 30 minutes; • C. After incubation, the detection antibody (Anti RSV Fpro) was added at 0.3 µg/50 µL/well (6 µg/mL), and the plate was incubated at 37°C in a 5% CO2 incubator for 1 hour; • D. After incubation, the HRP secondary antibody was added (diluted 10,000-fold with 0.2% BSA), and the plate was incubated at 37°C in a 5% CO2 incubator for 1 hour; • E. After incubation, the wells were washed for 4 times with PBST, 250 µL/well, each washing was allowed to stand for 5 minutes, and the liquid in the wells was shaken off after completion of the washing; • F. 100 µL/well of a development solution was added, the plate was incubated at room temperature in the dark for 20 minutes, and 50 µL/well of a reaction termination solution was added. The plate was tapped gently to mix the solutions, and the absorbance at 450 nm was measured using the microplate reader. • 4. Data analysis • Inhibition rate of the compound against the virus = 100% - (SC - CC)/(VC - CC) × 100% • SC: OD450 value of the sample (cells + test compound + virus) • CC: OD450 value of the normal growing cell control (cells) • VC: OD450 value of the virus growth control (cells + virus)
The software Graphpad Prism 6 was used, and the calculation formula XY-analysis/Nonlinear regression (curve fit)/Dose response-Inhibition/log (inhibition) vs. response-Variable slope (four parameters) was adopted to fit the IC50 curve and calculate the IC50 value.

[4] = molecular target: human potassium ion channel (hERG) (Homo sapiens, UniProt Q12809)
Protocol: Experimental equipment: Electrophysiological detection was performed using the fully automated patch clamp QPatch 48 X (Sophion) device.
Experimental procedure: The prepared cells were placed in the centrifuge chambers of the QPatch workbench, the cells were washed by the centrifugation/suspension method for multiple times to replace the cell culture medium with an extracellular solution. One MTP-96 plate was taken out and placed at the MTP source position. The QPlate chip was taken out and then the QPlate was placed at the QPlate source position. The robotic arm scanned the MTP-96 plate and the barcodes of the QPlate chip, and grabbed them to the measurement station. Intracellular and extracellular solutions were aspirated from the liquid pool and added to the intracellular solution pool and the cell and test substance pool of the QPlate chip, respectively. At the measurement station, all measurement sites on the QPlate underwent initial quality control. […] The current detected in each cell in the extracellular solution without the compound was used as its own control group, and the detection was independently repeated on two cells. […]
Data processing: The IC50 values were calculated using GraphPad Prism software.

[5] = human respiratory syncytial virus

human potassium ion channel (hERG), sequence (Q12809 whole entry): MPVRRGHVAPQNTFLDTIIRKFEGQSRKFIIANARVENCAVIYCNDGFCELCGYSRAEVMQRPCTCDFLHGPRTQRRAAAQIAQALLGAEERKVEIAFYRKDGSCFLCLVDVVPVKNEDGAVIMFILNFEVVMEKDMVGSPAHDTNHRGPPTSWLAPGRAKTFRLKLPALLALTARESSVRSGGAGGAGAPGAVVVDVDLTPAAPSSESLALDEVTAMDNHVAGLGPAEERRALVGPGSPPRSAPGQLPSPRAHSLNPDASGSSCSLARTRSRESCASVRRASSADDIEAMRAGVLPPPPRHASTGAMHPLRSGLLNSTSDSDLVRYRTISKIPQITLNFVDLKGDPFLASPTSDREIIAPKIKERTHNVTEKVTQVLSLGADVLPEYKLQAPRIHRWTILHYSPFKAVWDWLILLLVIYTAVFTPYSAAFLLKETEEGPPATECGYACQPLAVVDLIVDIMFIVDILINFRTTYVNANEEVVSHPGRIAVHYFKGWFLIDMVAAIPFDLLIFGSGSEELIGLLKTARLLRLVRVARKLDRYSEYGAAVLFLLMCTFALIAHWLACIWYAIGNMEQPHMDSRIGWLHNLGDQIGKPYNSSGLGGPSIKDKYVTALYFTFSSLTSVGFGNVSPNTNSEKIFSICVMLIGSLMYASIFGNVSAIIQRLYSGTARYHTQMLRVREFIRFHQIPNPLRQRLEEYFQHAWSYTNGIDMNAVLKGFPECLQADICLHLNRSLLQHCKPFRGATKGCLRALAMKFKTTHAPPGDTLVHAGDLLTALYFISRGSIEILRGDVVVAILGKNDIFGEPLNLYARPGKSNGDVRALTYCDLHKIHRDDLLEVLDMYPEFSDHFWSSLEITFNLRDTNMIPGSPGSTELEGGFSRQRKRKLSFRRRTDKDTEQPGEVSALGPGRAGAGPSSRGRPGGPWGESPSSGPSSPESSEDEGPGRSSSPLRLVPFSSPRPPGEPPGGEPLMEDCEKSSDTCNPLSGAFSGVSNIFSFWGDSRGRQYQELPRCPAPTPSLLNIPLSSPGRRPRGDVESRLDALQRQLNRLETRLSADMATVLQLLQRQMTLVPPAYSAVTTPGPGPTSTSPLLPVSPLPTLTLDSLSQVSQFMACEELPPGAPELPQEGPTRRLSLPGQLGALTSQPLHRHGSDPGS

Row | concentration at 6 h [1] | half-life [1] | IC50 [3, 5] | IC50 [3] | AK0529 IC50 / IC50 of the compounds of the present invention [3] | Compound | log (RSV Viral Load) Mean ([2]; 50 mpk, BID, 5 days administration) | log (RSV Viral Load) Mean ([2]; 50 mpk, QD, 5 days administration, value is the lower limit of detection for viral load) | log (RSV Viral Load) Mean ([2]; 100 mpk, QD, administration once) | IC50 of the Compound of the present invention /AK0529 IC50 [4]
1 | 7170 ng/g | 2.49 h | < 0.01 µM | – | ratio ≥20 | N[C@H]1CCN(c2nc(N3CCS(=O)(=NCC4CCO4)c4ccccc4C3)nc3ccc(C(F)F)cc23)C1 (stereo partly drawn) [Example 4-74, 4-(4-((S)-3-aminopyrrolidin-1-yl)-6-(difluoromethyl)quinazolin-2-yl)-1-((oxetan-2-ylmethyl)imino)-2,3,4,5-tetrahydro-benzo[f][1,4]thiazepine-1-oxide] | – | – | – | –
2 | 28800 ng/g | – | < 0.01 µM | – | ratio ≥20 | Cc1ccc2nc(N3CCS(=O)(=NC4CC4)c4ccccc4C3)nc(N3CC(N)C3)c2c1 (centres unmarked) [Example 4-76, 4-(4-(3-aminoazetidin-1-yl)-6-methylquinazolin-2-yl)-1-(cyclopropylimino)-2,3,4,5-tetrahydrobenzo[f][1,4]thiazepine-1-oxide] | – | – | – | –

Continued, compound first:

Row | Compound | concentration at 6 h [1] | half-life [1] | IC50 [3, 5] | IC50 [3] | AK0529 IC50 / IC50 of the compounds of the present invention [3] | log (RSV Viral Load) Mean ([2]; 50 mpk, BID, 5 days administration) | log (RSV Viral Load) Mean ([2]; 50 mpk, QD, 5 days administration, value is the lower limit of detection for viral load) | log (RSV Viral Load) Mean ([2]; 100 mpk, QD, administration once) | IC50 of the Compound of the present invention /AK0529 IC50 [4]
3 | Cc1ccc2nc(N3CCS(=O)(=O)c4ccccc4C3)nc(NCC3(N)COC3)c2c1 [AK0529, reference compound] | 1210 ng/g | 1.55 h | – | – | – | 3.06 | – | – | –
4 | Cc1ccc2nc(N3CCS(=O)(=NC4CC4)c4ccccc4C3)nc(N3CC[C@H](N)C3)c2c1 (some centres unmarked) [Example 4-11] | 22700 ng/g | 6.91 h | < 0.01 µM | – | – | – | 2.30° | 2.48 | –
5 | Cc1ccc2nc(N3CCS(=O)(=NCC4CCO4)c4ccccc4C3)nc(N3CC[C@H](N)C3)c2c1 (some centres unmarked) [Example 4-61] | – | – | – | < 0.01 µM | – | – | – | – | > 1
6 | COCC(C)N=S1(=O)CCN(c2nc(N3CC[C@H](N)C3)c3cc(C)ccc3n2)Cc2ccccc21 (some centres unmarked) [Example 4-69] | 6010 ng/g | 2.28 h | < 0.01 µM | – | – | – | – | – | –
